Data reported in PMC11191083 (ACS Omega, 2024).
Like-named read-outs stand apart in the source and are kept apart here.

Assays:
[1] = system: E. coli TG1 + pBGS18 + DHA-1; test: MIC broth microdilution, ceftazidime with or without inhibitor; type: cell-based, Escherichia coli; conditions: for MIC: Escherichia coli; for MIC of ceftazidime in the presence of inhibitor: DHA-1 (Class C, ESBL), inhibitor concentration 16 μg mL^–1
[2] = system: E. coli TG1 + pBGS18 + FOX-4; test: as above; type: cell-based, Escherichia coli; conditions: for MIC: Escherichia coli; for MIC of ceftazidime in the presence of inhibitor: FOX-4 (Class C, ESBL), inhibitor concentration 16 μg mL^–1
[3] = system: E. coli TG1 + pBGS18 + CMY-2; test: as above; type: cell-based, Escherichia coli; conditions: for MIC: Escherichia coli; for MIC of ceftazidime in the presence of inhibitor: CMY-2 (Class C, ESBL), inhibitor concentration 16 μg mL^–1
[4] = system: E. coli MG1655 + pBGS18 + CTX-M-2; test: as above; type: cell-based, Escherichia coli; conditions: for MIC of ceftazidime in the presence of inhibitor: CTX-M-2 (ESBL), inhibitor concentration 16 μg mL^–1
[5] = system: P. aeruginosa PAO ΔampD (PDC-1); test: as above; type: cell-based; conditions: Pseudomonas aeruginosa
[6] = system: K. pneumoniae ΔompK35/36+ pBGS18+ OXA-48; test: MIC broth microdilution, imipenem with or without inhibitor; type: cell-based, Klebsiella pneumoniae; conditions: for MIC of imipenem in the presence of inhibitor: OXA-48 (Class D, carbapenemase), inhibitor concentration 16 μg mL^–1; for MIC: Klebsiella pneumoniae
[7] = system: E. coli MG1655 + pBGS18 + CTX-M-14; test: MIC broth microdilution, ampicillin with or without inhibitor; type: cell-based, Escherichia coli; conditions: CTX-M-14 (Class A, ESBL); inhibitor concentration 16 μg mL^–1; 20 h, 37 °C
[8] = read-out: MIC of ceftazidime without an inhibitor
[9] = read-out: MIC of ceftazidime, strain without β-lactamase

Row | SMILES | MIC of imipenem in the presence of inhibitor [6] | MIC of ceftazidime in the presence of inhibitor [1] | MIC of ceftazidime in the presence of inhibitor [2] | MIC of ceftazidime in the presence of inhibitor [3] | MIC of ceftazidime in the presence of inhibitor [4] | MIC of ampicillin in the presence of inhibitor [7] | also measured
1 | CC(C)(O/N=C(\C(=O)N[C@@H]1C(=O)N2C(C(=O)[O-])=C(C[n+]3ccccc3)CS[C@H]12)c1csc(N)n1)C(=O)O [CAZ, ceftazidime, reference compound] | – | – | – | – | – | – | MIC [1, 8]: 32 µg/mL; MIC [1, 9]: ≤ 0.06 µg/mL; MIC [2, 8]: > 64 µg/mL; MIC [2, 9]: ≤ 0.06 µg/mL; MIC [3, 8]: 16 µg/mL; MIC [3, 9]: ≤ 0.06 µg/mL; MIC ([4]; Escherichia coli, MG1655, read-out: MIC of ceftazidime without an inhibitor): 1020 µg/mL; MIC [5, 8]: 8 µg/mL; MIC [5, 9]: 1 µg/mL
2 | C[C@]1(COC(=O)CCc2ccc(O)c(O)c2)[C@H](C(=O)[O-])N2C(=O)/C(=C/c3ccccn3)[C@H]2S1(=O)=O.[Na+] [Compound 3] | 16 μg mL^–1 | ≤0.06 μg mL^–1 | 0.12 μg mL^–1 | ≤0.06 μg mL^–1 | 2 μg mL^–1 | 32 μg mL^–1 | –
3 | C[C@]1(COC(=O)c2cc(Cl)ccc2O)[C@H](C(=O)[O-])N2C(=O)/C(=C/c3ccccn3)[C@H]2S1(=O)=O.[Na+] [Compound 5] | 16 μg mL^–1 | 0.12 μg mL^–1 | 16 μg mL^–1 | – | 64 μg mL^–1 | 512 μg mL^–1 | –
4 | C[C@]1(COC(=O)c2ccncc2O)[C@H](C(=O)[O-])N2C(=O)/C(=C/c3ccccn3)[C@H]2S1(=O)=O.[Na+] [Compound 7] | 16 μg mL^–1 | 4 μg mL^–1 | 0.12 μg mL^–1 | 1 μg mL^–1 | 256 μg mL^–1 | 1024 μg mL^–1 | –
5 | CC1(C)[C@H](C(=O)[O-])N2C(=O)/C(=C/c3cc(CCCOC(=O)Cc4ccc(O)c(O)c4)ccn3)[C@H]2S1(=O)=O.[Na+] [Compound 8] | 32 μg mL^–1 | 8 μg mL^–1 | 8 μg mL^–1 | 4 μg mL^–1 | 256 μg mL^–1 | 1024 μg mL^–1 | –
6 | C[C@@H](O)[C@H]1C(=O)N2C(C(=O)O)=C(SCCN=CN)C[C@H]12 [IP, imipenem, reference compound] | – | – | – | – | – | – | MIC ([6]; read-out: MIC of imipenem without an inhibitor): 64 µg/mL; MIC ([6]; read-out: MIC of imipenem, strain without β-lactamase): 0.5 µg/mL
